According to the supplement of paper PMC11061612:

How the values were obtained:
[1] = tested on: K-562 (Chronic Myelogenous Leukemia); assay: Bliss excess, mean over the matrix (fraction); higher = more synergy
How it was run: (§1)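 Cell lines grown in DMEM/F12 or RPMI with 10% FBS were plated in 1536-well plates and held 24 hours at 37°C, 5% CO2 before 72 hours of exposure to two-drug dose matrices, with DMSO typically at 0.2%. CellTiter-Glo 2.0 luminescence gave viability, which was converted to inhibition. Vehicle wells were set to 0 and blank wells to 1. Combination Emax is the second-highest inhibition in the matrix, and Bliss excess is the observed combination effect minus the expected EA + EB − EA·EB, where EA and EB are the single-agent effects.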

[2] = tested on: CAMA-1 (Breast Carcinoma); assay: as above
How it was run: as §1

[3] = tested on: ES8 (Ewing's Sarcoma); assay: as above
How it was run: as §1

[4] = tested on: L-540 (Hodgkin's Lymphoma); assay: as above
How it was run: as §1

[5] = tested on: GR-ST (B-Lymphoblastic Leukemia); assay: as above
How it was run: as §1

[6] = tested on: SR (Other Blood Carcinomas); assay: as above
How it was run: as §1

[7] = tested on: WM-115 (Melanoma); assay: as above
How it was run: as §1

[8] = tested on: NCI-H1792 (Lung Adenocarcinoma); assay: as above
How it was run: as §1

[9] = tested on: NCI-H2818 (Mesothelioma); assay: as above
How it was run: as §1

[10] = tested on: ES1 (Ewing's Sarcoma); assay: as above
How it was run: as §1

[11] = tested on: SW837 (Colorectal Carcinoma); assay: as above
How it was run: as §1

[12] = tested on: SW1417 (Colorectal Carcinoma); assay: as above
How it was run: as §1

[13] = tested on: BL-41 (Burkitt's Lymphoma); assay: as above
How it was run: as §1

[14] = tested on: DND-41 (T-Lymphoblastic Leukemia); assay: as above
How it was run: as §1

[15] = tested on: WIL2-NS (Non-Cancerous); assay: as above
How it was run: as §1

[16] = tested on: BFTC-905 (Bladder Carcinoma); assay: as above
How it was run: as §1

[17] = tested on: MKN28 (Gastric Carcinoma); assay: as above
How it was run: as §1

[18] = tested on: K-562 (Chronic Myelogenous Leukemia); assay: combination Emax (second highest fraction inhibited in the dose matrix, 72 h); higher = more inhibition; extreme values may be limits of the assay
How it was run: as §1

[19] = tested on: CAMA-1 (Breast Carcinoma); assay: as above
How it was run: as §1

[20] = tested on: ES8 (Ewing's Sarcoma); assay: as above
How it was run: as §1

[21] = tested on: L-540 (Hodgkin's Lymphoma); assay: as above
How it was run: as §1

[22] = tested on: GR-ST (B-Lymphoblastic Leukemia); assay: as above
How it was run: as §1

[23] = tested on: SR (Other Blood Carcinomas); assay: as above
How it was run: as §1

[24] = tested on: WM-115 (Melanoma); assay: as above
How it was run: as §1

[25] = tested on: NCI-H1792 (Lung Adenocarcinoma); assay: as above
How it was run: as §1

[26] = tested on: NCI-H2818 (Mesothelioma); assay: as above
How it was run: as §1

[27] = tested on: ES1 (Ewing's Sarcoma); assay: as above
How it was run: as §1

[28] = tested on: SW837 (Colorectal Carcinoma); assay: as above
How it was run: as §1

[29] = tested on: SW1417 (Colorectal Carcinoma); assay: as above
How it was run: as §1

[30] = tested on: BL-41 (Burkitt's Lymphoma); assay: as above
How it was run: as §1

[31] = tested on: DND-41 (T-Lymphoblastic Leukemia); assay: as above
How it was run: as §1

[32] = tested on: WIL2-NS (Non-Cancerous); assay: as above
How it was run: as §1

[33] = tested on: BFTC-905 (Bladder Carcinoma); assay: as above
How it was run: as §1

[34] = tested on: MKN28 (Gastric Carcinoma); assay: as above
How it was run: as §1
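Wherever Bliss excess, mean over the matrix is given: after 72 h of two-drug dosing.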

Row | Structure (SMILES) | Bliss excess [1] | Bliss excess [2] | Bliss excess [3] | Bliss excess [4] | Bliss excess [5] | Bliss excess [6] | Bliss excess [7] | Bliss excess [8] | Bliss excess [9] | Bliss excess [10] | Bliss excess [11] | Bliss excess [12] | Bliss excess [13] | Bliss excess [14] | Bliss excess [15] | Bliss excess [16] | Bliss excess [17] | combination Emax [18] | combination Emax [19] | combination Emax [20] | combination Emax [21] | combination Emax [22] | combination Emax [23] | combination Emax [24] | combination Emax [25] | combination Emax [26] | combination Emax [27] | combination Emax [28] | combination Emax [29] | combination Emax [30] | combination Emax [31] | combination Emax [32] | combination Emax [33] | combination Emax [34]
1 | O=C(c1cc(Cc2n[nH]c(=O)c3ccccc23)ccc1F)N1CCN(C(=O)C2CC2)CC1 [Olaparib] + CN(CC[C@H](CSC1=CC=CC=C1)NC2=C(C=C(C=C2)S(=O)(=O)NC(=O)C3=CC=C(C=C3)N4CCC(CC4)[C@H](C5=CC=CC=C5C6=CC=C(C=C6)Cl)O)S(=O)(=O)C(F)(F)F)CCO [AZD4320] (first compound max 10 µM, 7x7, partner max 1 µM) | -0.0155 | -0.0317 | 0.0463 | -0.0017 | 0.0012 | 0.146 | -0.0631 | -0.0399 | -0.0504 | 0.0333 | -0.053 | -0.0183 | 0.0193 | -0.0067 | 0.0107 | -0.0089 | -0.0269 | 0.253 | 0.278 | 0.982 | 0.618 | 0.462 | 0.709 | 0.37 | 0.154 | 0.186 | 0.918 | 0.197 | 0.651 | 0.417 | 1 | 0.509 | 0.346 | 0.147
2 | C[C@@H](Nc1cc(F)cc(F)c1)c1cc(C(=O)N(C)C)cc2c(=O)cc(N3CCOCC3)oc12 [AZD8186] + CC(=O)c1c(C)c2cnc(Nc3ccc(N4CCNCC4)cn3)nc2n(C2CCCC2)c1=O [Palbociclib] (first compound max 10 µM, 7x7, partner max 10 µM) | 0.0479 | 0.0447 | 0.0321 | 0.0275 | 0.0215 | 0.0382 | 0.0109 | 0.0608 | 0.044 | 0.074 | -0.0454 | 0.0187 | -0.0114 | 0.0875 | -0.0251 | 0.0553 | -0.0287 | 0.196 | 0.738 | 0.676 | 0.267 | 0.725 | 0.839 | 0.58 | 0.577 | 0.389 | 0.722 | 0.213 | 0.395 | 0.245 | 0.504 | 0.771 | 0.55 | 0.227
3 | Cc1cc2ncnn2cc1Nc1ncc2c(n1)n(C1CCOCC1)c(=O)n2C [AZD7648] + COc1cc([C@@H]2c3cc4c(cc3[C@@H](O[C@@H]3O[C@@H]5CO[C@@H](C)O[C@H]5[C@H](O)[C@H]3O)[C@H]3COC(=O)[C@H]23)OCO4)cc(OC)c1O [Etoposide] (first compound max 10 µM, 7x7, partner max 10 µM) | 0.114 | -0.012 | 0.165 | 0.108 | 0.0727 | 0.193 | 0.0071 | 0.0565 | 0.0361 | 0.109 | 0.0591 | 0.0288 | 0.0647 | 0.115 | 0.0553 | 0.152 | 0.0435 | 0.872 | 0.463 | 0.994 | 0.903 | 0.703 | 1 | 0.481 | 0.708 | 0.617 | 1 | 0.358 | 0.382 | 0.998 | 0.967 | 0.981 | 0.903 | 0.56
4 | C[C@@H](Oc1cc(-c2cnn(C3CCNCC3)c2)cnc1N)c1c(Cl)ccc(F)c1Cl [Crizotinib] + CC1=C(C(=CC=C1)Cl)NC(=O)C2=CN=C(S2)NC3=CC(=NC(=N3)C)N4CCN(CC4)CCO [Dasatinib] (first compound max 10 µM, 7x7, partner max 2 µM) | 0.0162 | -0.0273 | 0.0154 | -0.0447 | 0.0129 | -0.0251 | -0.0409 | 0.0376 | 0.0145 | -0.0149 | 0.0025 | 0.0352 | 0.0338 | -0.0124 | 0.105 | 0.0479 | -0.0096 | 0.95 | 0.184 | 0.946 | 0.629 | 0.955 | 1 | 0.49 | 0.928 | 0.589 | 0.843 | 0.628 | 0.535 | 0.978 | 0.951 | 0.635 | 0.97 | 0.673
5 | N#Cc1cnc(Nc2cc(NC[C@H]3CNCCO3)c(C(F)(F)F)cn2)cn1 [SRA737] + O=c1[nH]cc(F)c(=O)[nH]1 [5-Fluorouracil] (first compound max 10 µM, 7x7, partner max 20 µM) | -0.0202 | 0.0209 | 0.0404 | -0.0581 | -0.0636 | -0.0128 | -0.0753 | 0.0523 | -0.0232 | 0.0525 | 0.0162 | 0.0018 | 0.0042 | 0.0434 | 0.0182 | 0.0197 | 0.0222 | 0.893 | 0.314 | 0.611 | 0.936 | 0.817 | 0.959 | 0.255 | 0.84 | 0.239 | 0.982 | 0.497 | 0.238 | 1 | 0.946 | 0.957 | 0.278 | 0.381
6 | C[C@@H](Nc1cc(F)cc(F)c1)c1cc(C(=O)N(C)C)cc2c(=O)cc(N3CCOCC3)oc12 [AZD8186] + C1CN(CCC1(C(=O)N[C@@H](CCO)C2=CC=C(C=C2)Cl)N)C3=NC=NC4=C3C=CN4 [AZD5363] (first compound max 10 µM, 7x7, partner max 10 µM) | 0.0402 | 0.0234 | 0.0216 | -0.024 | -0.03 | -0.0412 | -0.0842 | -0.0066 | -0.017 | 0.0388 | -0.0386 | -0.0038 | -0.0264 | 0.0141 | 0.0339 | -0.0098 | -0.0504 | 0.253 | 0.712 | 0.625 | 0.173 | 0.556 | 0.297 | 0.645 | 0.344 | 0.286 | 0.55 | 0.237 | 0.372 | 0.276 | 0.193 | 0.614 | 0.423 | 0.107
7 | CC1(C)CCC(CN2CCN(c3ccc(C(=O)NS(=O)(=O)c4ccc(NCC5CCOCC5)c([N+](=O)[O-])c4)c(Oc4cnc5[nH]ccc5c4)c3)CC2)=C(c2ccc(Cl)cc2)C1 [Venetoclax] + CS(=O)(=O)CCNCc1ccc(-c2ccc3ncnc(Nc4ccc(OCc5cccc(F)c5)c(Cl)c4)c3c2)o1 [Lapatinib] (first compound max 1 µM, 7x7, partner max 10 µM) | -0.0039 | -0.0271 | -0.0229 | -0.005 | -0.0246 | 0.0557 | -0.0897 | -0.0311 | -0.0651 | -0.0215 | -0.0498 | -0.0168 | 0.0434 | -0.0268 | 0.0039 | -0.0591 | -0.0303 | 0.451 | 0.162 | 0.506 | 0.532 | 0.934 | 0.36 | 0.237 | 0.345 | 0.174 | 0.381 | 0.185 | 0.136 | 0.855 | 0.81 | 0.348 | 0.254 | 0.397
8 | CN(CCO)CC[C@H](CSc1ccccc1)Nc1ccc(S(=O)(=O)NC(=O)c2ccc(N3CCC([C@@H](O)c4ccccc4-c4ccc(Cl)cc4)CC3)cc2)cc1S(=O)(=O)C(F)(F)F [AZD4320] + CS(=O)(=O)CCNCc1ccc(-c2ccc3ncnc(Nc4ccc(OCc5cccc(F)c5)c(Cl)c4)c3c2)o1 [Lapatinib] (first compound max 1 µM, 7x7, partner max 10 µM) | -0.03 | 0.0048 | 0.121 | 0.137 | -0.0086 | 0.0765 | 0.0604 | -0.0553 | -0.0332 | -0.0147 | 0.0547 | 0.0238 | -0.0006 | 0.0603 | -0.0018 | 0.034 | -0.0128 | 0.552 | 0.36 | 0.956 | 0.905 | 0.961 | 0.777 | 0.909 | 0.546 | 0.407 | 0.923 | 0.942 | 0.934 | 0.97 | 1 | 0.258 | 0.529 | 0.693
